Assays:
[1] = test system: iPS cells (201B7); test: WST assay, growth of iPS cells (201B7) in culture medium with β-NMN or NAM; format: cell-based, human; conditions: for absorbance values at 450 nm (ref. 595 nm), WST assay, compared with basal medium: Example 2, FIG. 2, 0.2 or 0.4 mM added to E8 medium
Description: As iPS cells, 201B7 line which is human iPS cells was used. For iPS cells, an E8 medium (LTC) containing 19.4 mg/L of insulin, 10.7 mg/L of transferrin, 100 μg/L of bFGF, 2 μg/L of TGFβ, 14 μg/L of sodium selenite, 64 mg/L of ascorbic acid, and 543 mg/L of NaHCO3 in DMEM/F12 was used as the basal medium. First, iPS cells cultured in the basal medium were separated from a culture vessel by a cell-peeling solution and recovered. The recovered cells were counted and seeded in each well of a Matrigel-coated 96-well plate at 1000 to 2000 cells/well. At this time, a ROCK inhibitor was added to each well. The 96-well plate was cultured at 37° C. for 1 day to allow the cells to adhere, and then the medium containing the ROCK inhibitor was removed from each well, the medium was replaced with a medium obtained by adding, to the basal medium, β-NMN (Oriental Yeast Co., Ltd.) so that a final concentration became 0 to 2 mM, and culturing was performed for 3 to 4 days. Thereafter, a growth ability of cells surviving in each well was measured by water-soluble tetrazolium salts (WST) assay. Specifically, after adding WST-1 (manufactured by Nacalai Tesque) to each well and incubating at 37° C. for 1 to 4 hours, absorbance values at 450 nm (ref. 595 nm) were measured using a microplate reader (manufactured by BMG LABTECH). The term “absorbance value (450 to 595 nm)” is an absorbance value at 450 nm using an absorbance value at 595 nm as a reference value, and is specifically a value obtained by subtracting an absorbance value at 595 nm from an absorbance value at 450 nm. Specifically, iPS cells were cultured and the WST assay was performed in the same manner as in Example 1 except that the medium added after removing the medium containing the ROCK inhibitor was changed to a culture medium to which β-NMN was added so that a final concentration became 0, 0.2, or 0.4 mM, or a culture medium to which NAM was added so that a final concentration became 0, 0.2, or 0.4 mM. The iPS cells cultured in the basal medium used in Example 1 were separated from a culture vessel by a cell-peeling solution and recovered. The recovered cells were counted and seeded in each well of a Matrigel-coated 96-well plate at 1000 to 2000 cells/well. At this time, a ROCK inhibitor and β-NMN having a final concentration of 0 to 1 mM were added to each well. The cells in 96-well plate was cultured at 37° C. for 1 day to allow the cells to adhere, and then the medium containing the ROCK inhibitor was removed from each well, the medium was replaced with a culture medium obtained by adding, to the basal medium, β-NMN so that a final concentration became 0 to 1 mM, and culturing was performed for 3 to 4 days. Thereafter, WST assay was performed in the same manner as in Example 1. The results of measuring absorbance values at 450 nm (ref. 595 nm) of each cells cultured in a medium to which both ROCK inhibitor and β-NMN were added are shown in FIG. 4.

[2] = test system: iPS cells (253G1); test: WST assay, growth of iPS cells (253G1) in culture medium with β-NMN or NAM; format: cell-based; conditions: for absorbance values at 450 nm (ref. 595 nm), WST assay, compared with basal medium: Example 3, FIG. 3, added to E8 medium
Description: First, iPS cells cultured in the basal medium were separated from a culture vessel by a cell-peeling solution and recovered. The recovered cells were counted and seeded in each well of a Matrigel-coated 96-well plate at 1000 to 2000 cells/well. At this time, a ROCK inhibitor was added to each well. The 96-well plate was cultured at 37° C. for 1 day to allow the cells to adhere, and then the medium containing the ROCK inhibitor was removed from each well, the medium was replaced with a medium obtained by adding, to the basal medium, β-NMN (Oriental Yeast Co., Ltd.) so that a final concentration became 0 to 2 mM, and culturing was performed for 3 to 4 days. Thereafter, a growth ability of cells surviving in each well was measured by water-soluble tetrazolium salts (WST) assay. Specifically, after adding WST-1 (manufactured by Nacalai Tesque) to each well and incubating at 37° C. for 1 to 4 hours, absorbance values at 450 nm (ref. 595 nm) were measured using a microplate reader (manufactured by BMG LABTECH). The term “absorbance value (450 to 595 nm)” is an absorbance value at 450 nm using an absorbance value at 595 nm as a reference value, and is specifically a value obtained by subtracting an absorbance value at 595 nm from an absorbance value at 450 nm. iPS cells were cultured in culture medium containing β-NMN or NAM, and the effects of β-NMN and NAM on growth were compared. As iPS cells, 253G1 line was used. Specifically, iPS cells were cultured and WST assay was performed in the same manner as in Example 1 except that 253G1 line was used instead of 201B7 line.

[3] = test system: iPS cells (201B7); test: Alkaline phosphatase measurement test (undifferentiated marker) on iPS cells (201B7); format: cell-based, human; conditions: Example 4, FIG. 5, β-NMN up to 1 mM added with ROCK inhibitor, vs β-NMN-free medium
Description: iPS cells were cultured in a culture medium containing β-NMN, and the effects of β-NMN on differentiation potential and growth were examined. As iPS cells, a 201B7 line was used. The differentiation potential was examined using the enzyme activity of alkaline phosphatase, which is an undifferentiated marker, as an indicator. First, the iPS cells cultured in the basal medium used in Example 1 were separated from a culture vessel by a cell-peeling solution and recovered. The recovered cells were counted and seeded in each well of a Matrigel-coated 96-well plate at 2000 cells/well. At this time, the ROCK inhibitor and β-NMN having a final concentration of 0 to 1 mM were added to each well. The cells in 96-well plate was cultured at 37° C. for 1 day to allow the cells to adhere, and then the medium containing the ROCK inhibitor was removed from each well, the medium was replaced with a medium obtained by adding, to the basal medium, β-NMN so that a final concentration became 0 to 1 mM, and culturing was performed for 3 to 4 days. During this period, the medium was replaced daily. […] After drying the wells, a bicarbonate buffer containing […], which is an alkaline phosphatase measurement reagent, was added and incubated at 37° C. for 30 minutes, and then absorbance at 405 nm was measured using a microplate reader.

[4] = test system: Human mesenchymal stem cells (human MSCs); test: WST assay, proliferative activity of human mesenchymal stem cells; format: cell-based; conditions: 72 hours
Description: Human MSCs purchased from Lonza were used. As a basal medium for human MSCs, a dedicated maintenance medium purchased from Lonza was used. Human MSCs were seeded in 96-well plates (Nunc) at 2×10^3 cells/well (n=3 to 4). They were cultured at 37° C. in a CO2 incubator to allow them to adhere, and then β-NMN (manufactured by Oriental Yeast Co., Ltd.) was added so that a final concentration became 1.0, 0.1, 0.01, or 0.001 mM, and culture was further performed at 37° C. in a CO2 incubator for 72 hours. Thereafter, proliferative activity of cells in each well was measured with WST assay. Specifically, after adding a viable cell count reagent SF (Nacalai Tesque) to each well and incubating at 37° C. for 1 to 4 hours, absorbance at 450 nm was measured with the reference wavelength at 620 nm using a microplate reader (absorbance values at 450 nm (ref. 620 nm) (BMG LABTECH). The term “absorbance values at 450 nm (ref. 620 nm)” is an absorbance value at 450 nm using an absorbance value at 620 nm as a reference value, and is specifically a value obtained by subtracting an absorbance value at 620 nm from an absorbance value at 450 nm. [0045]

[5] = test system: iPS cells (201B7); test: Flow cytometry of undifferentiated markers (SSEA4, low sulfated keratan sulfate) in iPS cells (201B7); format: cell-based, human; conditions: 5 or more passages, vs 0 mM
Description: The differentiation potential of iPS cells maintained and grown in the presence of β-NMN was confirmed. As iPS cells, a 201B7 line was used. Specifically, iPS cells were seeded in a 35 mm dish coated with Matrigel (Corning) at 1.5×10^4 cells/dish. As culture medium in which β-NMN was added to a basal medium (E8 medium) of iPS cells so that a final concentration became 0, 0.25, or 1 mM was used. At the time of seeding, Rho-dependent apoptosis was suppressed using a culture medium to which a Rock inhibitor was added so that a final concentration became 10 μM. The medium was replaced daily and the cells were passaged on day 5 and 6. iPS cells cultured for 5 or more passages in the medium to which β-NMN was added were stained with each of antibodies against SSEA4 and against low sulfated keratan sulfate which are undifferentiated markers, and cells expressing the undifferentiated markers were analyzed with a flow cytometer.

SMILES	absorbance values at 450 nm (ref. 595 nm), WST assay ([1]; Example 1, FIG. 1, medium containing 0.1 mM or more of β-NMN vs β-NMN-free medium, 3 to 4 days)	absorbance values at 450 nm (ref. 595 nm), WST assay ([1]; Example 1, FIG. 1, β-NMN 0.8 mM or more)	absorbance values at 450 nm (ref. 595 nm), WST assay ([1]; Example 1, FIG. 1, β-NMN 0.1 to 0.2 mM)	absorbance values at 450 nm (ref. 595 nm), WST assay ([1]; Example 1, FIG. 1, β-NMN 0.2 to 0.6 mM)	absorbance values at 450 nm (ref. 595 nm), WST assay, compared with basal medium [1]	absorbance values at 450 nm (ref. 595 nm), WST assay, β-NMN-added medium compared with NAM-added medium ([1]; Example 2, FIG. 2, final concentration 0.2 mM and 0.4 mM)	absorbance values at 450 nm (ref. 595 nm), WST assay (effect on growth) ([1]; Example 4, FIG. 4, β-NMN 0 to 1 mM added together with ROCK inhibitor at seeding and afterwards)	absorbance values at 450 nm (ref. 595 nm), WST assay, compared with basal medium [2]	absorbance values at 450 nm (ref. 595 nm), WST assay, β-NMN-added medium compared with NAM-added medium ([2]; Example 3, FIG. 3, final concentration 0.2 mM and 0.4 mM)	absorbance values at 405 nm, alkaline phosphatase measurement test [3]	proliferative activity of human MSCs (absorbance, WST assay), overall ([4]; addition of β-NMN 0.001 to 1.0 mM)	Absorbance value at450 nm (ref. 620 nm) ([4]; β-NMN concentration 0.001 mM)	Absorbance value at450 nm (ref. 620 nm) ([4]; β-NMN concentration 0.01 mM)	Absorbance value at450 nm (ref. 620 nm) ([4]; β-NMN concentration 0.1 mM)	Absorbance value at450 nm (ref. 620 nm) ([4]; β-NMN concentration 1 mM)	Expression of SSEA4 (flow cytometry, anti-SSEA4 antibody) ([5]; Example 6, FIGS. 6 to 8, 0.25 mM or 1 mM of β-NMN)	Expression of low sulfated keratan sulfate (flow cytometry, R10G antibody) ([5]; Example 6, FIGS. 9 to 11, 0.25 mM or 1 mM of β-NMN)
NC(=O)c1ccc[n+]([C@@H]2O[C@H](COP(=O)([O-])O)[C@@H](O)[C@H]2O)c1 [β-NMN, β-nicotinamide mononucleotide]	greater than that of the cells cultured in the β-NMN-free medium	tended to slightly decrease	increased in a concentration-dependent manner	the absorbance value was the same	higher absorbance values than cells cultured in the basal medium	significantly higher than that of the cells cultured in the NAM-added medium	growth-accelerating effect on iPS cells was obtained in a β-NMN concentration-dependent manner	higher absorbance value than that of the cell cultured in the basal medium	significantly higher than that of the cells cultured in the NAM-added medium	higher than that of the cells cultured in the β-NMN-free medium	increased the absorbance value and accelerated proliferative activity	0.573 ± 0.0312	0.604 ± 0.0587	0.634 ± 0.0411	0.615 ± 0.0340	maintained	maintained
NC(=O)c1cccnc1 [NAM, nicotinamide, reference compound]					higher absorbance values than cells cultured in the basal medium			slightly higher absorbance value than that of the cells cultured in the basal medium									
